Data: patent US20120214862A1, “MODULATION OF FACTOR 7 EXPRESSION” (ISIS Pharmaceuticals, Inc., priority 2009, published 2012)
In the oligonucleotide strings, read from the 5' end, every base follows the letter of its sugar. An asterisk marks phosphorothioate; unmarked linkages are phosphodiester. Other units and linkages are bracketed, terminal groups are in braces. A string of capitals states the bases alone. e = 2'-O-(2-methoxyethyl) (MOE); [5mC] = 5-methylcytosine; d = 2'-deoxy (DNA)

test system: human Factor 7 mRNA; assay: Antisense inhibition of human Factor 7 mRNA in HepB3 cells, lipofectin, 50 nM, real-time RT-PCR; assay type: cell-based; settings: Example 1; HepB3 cells, lipofectin, 50 nM, ~24 h, relative to untreated control cells
Procedure, shortened: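 After transfection of wells containing 4,000 cells, treatment ran for approximately 24 h. RIBOGREEN®-measured total RNA served for normalisation, and inhibition was calculated as a percentage of untreated control.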

Substance | % Inhibition (human Factor 7 mRNA)
407936 (antisense eG*eG*e[5mC]*eA*eT*dT*d[5mC]*dG*d[5mC]*d[5mC]*dA*d[5mC]*d[5mC]*dA*dT*eG*e[5mC]*eA*eT*eG) [compound 407936] | 91%
407895 (antisense e[5mC]*eA*e[5mC]*eA*e[5mC]*dA*dG*dA*dT*d[5mC]*dA*dG*d[5mC]*dT*dG*eG*eT*e[5mC]*eA*eT) [compound 407895] | 72%
407923 (antisense e[5mC]*eA*eG*eG*eA*d[5mC]*dA*dG*dT*dT*d[5mC]*dG*dA*d[5mC]*dG*e[5mC]*eA*eG*e[5mC]*e[5mC]) [compound 407923] | 76%
407630 (antisense e[5mC]*eA*e[5mC]*eA*eT*dG*dG*dT*d[5mC]*dA*dG*dT*dG*dA*dG*eG*eA*e[5mC]*e[5mC]*eA) [compound 407630] | 29%
407624 (antisense eG*eA*eG*eA*e[5mC]*d[5mC]*dA*d[5mC]*d[5mC]*d[5mC]*dA*dG*dA*dT*dG*eG*eT*eG*eT*eT) [compound 407624] | 73%
407926 (antisense e[5mC]*e[5mC]*eA*eG*eG*dA*d[5mC]*dA*dA*d[5mC]*d[5mC]*dT*dT*dG*dG*e[5mC]*eA*e[5mC]*eT*e[5mC]) [compound 407926] | 79%
407886 (antisense eG*e[5mC]*eA*eG*eA*dG*dG*dA*dG*d[5mC]*d[5mC]*dT*dG*dA*dG*eG*eG*e[5mC]*e[5mC]*eT) [compound 407886] | 72%
407603 (antisense eT*eA*eA*eG*eA*dA*dA*dT*d[5mC]*d[5mC]*dA*dG*dA*dA*d[5mC]*eA*eG*e[5mC]*eT*eT) [compound 407603] | 54%

same assay, conditions: Example 4; HepB3 cells, lipofectin, 50 nM, ~24 h, relative to untreated control

Substance | % Inhibition (human Factor 7 mRNA)
422195 (antisense eA*e[5mC]*eT*dG*dA*dG*d[5mC]*dG*d[5mC]*dG*dG*dA*dA*dG*dA*dA*dG*eG*eG*eA) [compound 422195] | 37%
422273 (antisense eT*eA*d[5mC]*dT*dG*dA*dG*d[5mC]*dG*d[5mC]*dG*dG*dA*dA*dG*eA*eA*eG*eG*eG) [compound 422273] | 0%
422193 (antisense eT*eG*eA*dG*d[5mC]*dG*d[5mC]*dG*dG*dA*dA*dG*dA*dA*dG*dG*dG*eA*e[5mC]*eG) [compound 422193] | 6%

same assay, conditions: HepB3 cells, lipofectin, 50 nM antisense oligonucleotide, approximately 24 hours, primer probe set RTS 2927, relative to untreated control

Substance | % Inhibition of human Factor 7 mRNA levels
416541 (antisense e[5mC]*e[5mC]*eA*e[5mC]*e[5mC]*d[5mC]*dT*dT*dG*dG*dT*dG*d[5mC]*d[5mC]*d[5mC]*eA*eG*eA*eT*e[5mC]) [compound 416541] | 53%
416478 (antisense eG*eT*e[5mC]*eT*e[5mC]*d[5mC]*dA*dG*d[5mC]*dA*dA*dT*dG*dA*dA*eG*eG*e[5mC]*eA*eG) [compound 416478] | 44%
416535 (antisense eG*e[5mC]*eA*eG*eG*dA*dT*dG*d[5mC]*dA*d[5mC]*dA*d[5mC]*d[5mC]*dA*eG*eG*eG*e[5mC]*eT) [compound 416535] | 47%
416457 (antisense eG*eG*eA*eT*eG*dA*dT*dG*dA*d[5mC]*d[5mC]*dT*dG*d[5mC]*dG*e[5mC]*e[5mC]*eA*e[5mC]*e[5mC]) [compound 416457] | 48%
416435 (antisense e[5mC]*e[5mC]*e[5mC]*eA*eT*d[5mC]*dA*d[5mC]*dT*dG*dT*dA*dA*dG*dA*eA*eA*eT*e[5mC]*e[5mC]) [compound 416435] | 3%
416430 (antisense eG*e[5mC]*eA*eG*e[5mC]*dT*d[5mC]*d[5mC]*dT*d[5mC]*d[5mC]*dA*dG*dG*dA*eA*e[5mC]*eG*e[5mC]*eG) [compound 416430] | 52%
416525 (antisense eT*eA*eT*eG*eA*dG*dT*d[5mC]*d[5mC]*dT*dT*d[5mC]*dT*dA*dG*eT*eG*eA*eA*eT) [compound 416525] | 5%
416542 (antisense e[5mC]*eA*eG*eG*eG*dT*dG*d[5mC]*d[5mC]*d[5mC]*dA*dT*d[5mC]*d[5mC]*dT*eA*eG*eT*e[5mC]*eA) [compound 416542] | 56%
416539 (antisense eG*eA*e[5mC]*eA*eG*dA*dG*d[5mC]*d[5mC]*dT*dG*dA*dG*d[5mC]*dT*eT*eG*eG*e[5mC]*eA) [compound 416539] | 53%
416538 (antisense e[5mC]*eG*eT*eG*eG*dA*d[5mC]*dT*dG*dA*dT*d[5mC]*d[5mC]*dA*dA*eA*eG*eG*eA*e[5mC]) [compound 416538] | 46%

same assay, conditions: HepB3 cells; gapmers (5-10-5, 3-14-3, 2-13-5 MOE) targeted to nucleobases 4868 to 4899 of SEQ ID NO: 1

Substance | % Inhibition of human Factor 7 mRNA levels
422225 (antisense eA*eG*eG*dA*dG*d[5mC]*d[5mC]*d[5mC]*dG*dA*dG*dT*dT*d[5mC]*dT*dG*d[5mC]*eA*eG*eG) [compound 422225] | 56%
422224 (antisense eG*eG*eA*dG*d[5mC]*d[5mC]*d[5mC]*dG*dA*dG*dT*dT*d[5mC]*dT*dG*d[5mC]*dA*eG*eG*eA) [compound 422224] | 62%
422143 (antisense e[5mC]*e[5mC]*eG*eA*eG*dT*dT*d[5mC]*dT*dG*d[5mC]*dA*dG*dG*dA*eG*e[5mC]*eG*eG*e[5mC]) [compound 422143] | 70%

same assay, conditions: HepB3 cells; gapmers targeted to nucleobases 11830 to 11869 of SEQ ID NO: 1 (Table 9)

Substance | % Inhibition of human Factor 7 mRNA levels
422243 (antisense eA*eG*dG*dA*dG*dA*d[5mC]*dA*dA*dT*dG*dG*dT*d[5mC]*dA*eG*eG*eG*e[5mC]*eT) [compound 422243] | 62%
422103 (antisense eG*e[5mC]*eT*eG*eA*dG*dG*dA*dG*dA*d[5mC]*dA*dA*dT*dG*eG*eT*e[5mC]*eA*eG) [compound 422103] | 38%
422244 (antisense eG*eA*dG*dG*dA*dG*dA*d[5mC]*dA*dA*dT*dG*dG*dT*d[5mC]*eA*eG*eG*eG*e[5mC]) [compound 422244] | 55%
422154 (antisense eT*e[5mC]*eA*dG*dG*dG*d[5mC]*dT*dG*dG*dT*dT*dT*dT*dG*dG*dA*eG*eG*eA) [compound 422154] | 31%
422155 (antisense eG*eT*e[5mC]*dA*dG*dG*dG*d[5mC]*dT*dG*dG*dT*dT*dT*dT*dG*dG*eA*eG*eG) [compound 422155] | 34%

same assay, conditions: HepB3 cells; gapmers targeted to nucleobases 13760 to 13789 of SEQ ID NO: 1 (Table 10)

Substance | % Inhibition of human Factor 7 mRNA levels
422257 (antisense e[5mC]*e[5mC]*dA*d[5mC]*d[5mC]*d[5mC]*dG*d[5mC]*d[5mC]*dG*dG*d[5mC]*dT*d[5mC]*dT*eG*e[5mC]*eT*e[5mC]*eA) [compound 422257] | 65%

test system: human Factor 7 mRNA; assay: Dose-dependent antisense inhibition of human Factor 7 in HepB3 cells, transfection with lipofectin; assay type: cell-based; settings: Example 2; HepB3, lipofectin, 3.125 nM, ~16 h
Description: Cells were plated at a density of 4,000 cells per well and treated with lipofectin reagent with 3.125 nM, 6.25 nM, 12.5 nM, 25 nM, 50 nM, and 100 nM concentrations of antisense oligonucleotide, as indicated in Table 3. After a treatment period of approximately 16 hours, RNA was isolated from the cells and Factor 7 mRNA levels were measured by real-time RT-PCR, as described herein. Human Factor 7 primer probe set RTS 2927 (forward sequence: […], incorporated herein as SEQ ID NO: 164; reverse sequence: […], incorporated herein as SEQ ID NO: 165; probe sequence: TGGGTGGTCTCCGCGGCCX, incorporated herein as SEQ ID NO: 166) was used to measure mRNA levels. Factor 7 mRNA levels were adjusted according to total RNA content as measured by RIBOGREEN®. Results are presented as percent inhibition of Factor 7, relative to untreated control cells.
Cells were plated at a density of 4,000 cells per well and transfected using lipofectin reagent with 6.25 nM, 12.5 nM, 25.0 nM, 50.0 nM, and 100.0 nM concentrations of antisense oligonucleotide, as indicated in Table 7. After a treatment period of approximately 16 hours, RNA was isolated from the cells and Factor 7 mRNA levels were measured by real-time RT-PCR, as described herein. Human Factor 7 primer probe set RTS 2927 was used to measure mRNA levels. Factor 7 mRNA levels were adjusted according to total RNA content as measured by RIBOGREEN®. Results are presented as percent inhibition of Factor 7, relative to untreated control cells.
Cells were plated at a density of 4,000 cells per well and transfected using lipofectin reagent with 3.125 nM, 6.25 nM, 12.5 nM, 25 nM, 50 nM, and 100 nM concentrations of antisense oligonucleotide, as specified in Table 14. After a treatment period of approximately 16 hours, RNA was isolated from the cells and Factor 7 mRNA levels were measured by quantitative real-time PCR. Human Factor 7 primer probe set RTS 2927 was used to measure mRNA levels. Factor 7 mRNA levels were adjusted according to total RNA content, as measured by RIBOGREEN®. Results are presented as percent inhibition of Factor 7, relative to untreated control cells.

Substance | percent inhibition of Factor 7 mRNA, 3.125 nM
407936 (antisense eG*eG*e[5mC]*eA*eT*dT*d[5mC]*dG*d[5mC]*d[5mC]*dA*d[5mC]*d[5mC]*dA*dT*eG*e[5mC]*eA*eT*eG) [compound 407936] | 45%

same assay, conditions: Example 2; HepB3, lipofectin, 6.25 nM, ~16 h

Substance | percent inhibition of Factor 7 mRNA, 6.25 nM
407936 (antisense eG*eG*e[5mC]*eA*eT*dT*d[5mC]*dG*d[5mC]*d[5mC]*dA*d[5mC]*d[5mC]*dA*dT*eG*e[5mC]*eA*eT*eG) [compound 407936] | 77%

same assay, conditions: Example 2; HepB3, lipofectin, 12.5 nM, ~16 h

Substance | percent inhibition of Factor 7 mRNA, 12.5 nM
407936 (antisense eG*eG*e[5mC]*eA*eT*dT*d[5mC]*dG*d[5mC]*d[5mC]*dA*d[5mC]*d[5mC]*dA*dT*eG*e[5mC]*eA*eT*eG) [compound 407936] | 79%

same assay, conditions: Example 2; HepB3, lipofectin, 25.0 nM, ~16 h

Substance | percent inhibition of Factor 7 mRNA, 25.0 nM
407936 (antisense eG*eG*e[5mC]*eA*eT*dT*d[5mC]*dG*d[5mC]*d[5mC]*dA*d[5mC]*d[5mC]*dA*dT*eG*e[5mC]*eA*eT*eG) [compound 407936] | 86%

same assay, conditions: Example 2; HepB3, lipofectin, 50.0 nM, ~16 h

Substance | percent inhibition of Factor 7 mRNA, 50.0 nM
407936 (antisense eG*eG*e[5mC]*eA*eT*dT*d[5mC]*dG*d[5mC]*d[5mC]*dA*d[5mC]*d[5mC]*dA*dT*eG*e[5mC]*eA*eT*eG) [compound 407936] | 91%

same assay, conditions: Example 2; HepB3, lipofectin, 100.0 nM, ~16 h

Substance | percent inhibition of Factor 7 mRNA, 100.0 nM
407936 (antisense eG*eG*e[5mC]*eA*eT*dT*d[5mC]*dG*d[5mC]*d[5mC]*dA*d[5mC]*d[5mC]*dA*dT*eG*e[5mC]*eA*eT*eG) [compound 407936] | 90%
